Measurements reported in patent US6852698B2, “Free radical scavengers or promoters thereof as therapeutic adjuvants in preterm parturition” (priority 2000, dated 2005).

Experiments:
[1] = parameters: species or system mice; conditions: mouse, in vivo
Procedure: We have experimentally investigated the transplacental passage of spin trapping compounds. Methodology: C57B16 mice were injected ip with 4 mmols/kg POBN [a-(4-pyridyl-1-oxide-N-t-butylnitrone)] on day 16 of pregnancy. Animals were sacrificed at different times after injection, 2-5 fetuses collected and lipids extracted as described by Brackett et al., 1989. Electron paramagnetic spectra were obtained in a Varian EPR spectrometer equipped with an X-band microwave bridge with center field set at 3376 Gauss and modulation frequency at 100 Hz. The extracts were examined before and after in vitro addition of a hydroxyl radical generating Fenton mixture (Fe^2++H2O2).

[2] = system: superoxide anion in fetal membranes; experiment: Nitroblue tetrazolium (formazan) assay of superoxide generation in fetal membranes; assay type: cell-based, human
Procedure: Intracellular superoxide anion generation: Pieces of fetal membranes were immersed in Krebs bicarbonate buffer (118 mM NaCl, 4.7 mM KCl, 1.18 MM MgSO4, 1.18 mM KH2PO4, 11.1 mM D-glucose, 0.016 mM EDTA, 2.2 mM CaCl2, 15.8 mM NaHCO3, pH=7.35−7.4) containing 1 mg/ml nitroblue tetrazolium (NBT), for 180 min. in the CO2 incubator with humidified chamber at 37° C. The soluble yellow form of NBT is reducedby O2.^− generated within the tissue to form an insoluble precipitate of blue-purple formazan. After incubation, the fetal membranes were washed in saline, photographed, placed in 4% formaldehyde and kept overnight in a refrigerator. Specimens were then embedded in OCT Tissue Tek embedding medium (Fisher Scientific, Pittsburgh, Pa.) and frozen in liquid nitrogen. The frozen specimens were cut by cryostat into 20 μm sections, mounted onto electrostatically treated-glass slides (Fisherbrand Superfrost Plus, Fisher Scientific) and counterstained with Neutral Red. They were immediately investigated by light microscopy using a Nikon Eclipse E1000M microscope connected to an MTI DC330 3CCD Color Camera (Dage MTI Inc., Michigan City, Mich.).

extracellular O2− [3] = experiment: Cytochrome c reduction assay of the X/XO reaction; assay type: biochemical; conditions: SOD 500 U/ml
Procedure: Extracellular superoxide anion generation: O2^− was generated enzymatically from the reaction between 2 mM xanthine (X) and 20 mU/ml xanthine oxidase (XO), as described by McCord and Fridovich (1969). Though these amounts are larger than those routinely used for in vitro generation of O2^− in cell-free experiments, we have based our decision on the presence of both XO and SOD in fetal membranes (Telfer et al., 1997) and on our assumption that the expression of these enzymes will change the efficiency of the X/XO reaction. As a result we monitored the efficiency of the X/XO reaction in our experimental setting by a cytochrome c assay, both in tissue-free conditions as well as in the presence of the tissue (Babior et al., 1973).

MMP-9 = experiment: Gelatin zymography of medium from incubated human term amniochorionic membranes, MMP-9; assay type: cell-based; conditions: for Effect on the increase in MMP-9 induced by X/XO: X 2 mM + XO 20 mU/ml, SOD 500 U/ml
From the text: (§1) Tissues: Full thickness amniochorionic membranes were collected from seven patients without complications of pregnancy undergoing elective C-section at term. The fragment collected was selected from a region at least 10 cm away from the placenta. Immediately after collection, membranes were placed in minimum essential medium (MEM) (Gibco, Grand Island, N.Y.) on ice. Tissue samples were then cut under sterile conditions with a scalpel blade into smaller pieces of similar size. Over the next 30 min., the pieces of membranes were rinsed thoroughly with several changes of MEM and then sterile phosphate buffered saline (PBS) pH=7.8. Preweighed amounts of tissue (approximately 500 mg) consisting of several pieces selected at random were placed in a CO2 incubator with a humidified chamber at 37° C. for 24 hours. Incubations were carried out in a total volume of 2 ml buffer. Both wet weight and dry weight of tissue pieces were determined after incubation and after drying overnight at 60° C., respectively. After incubation the culture-conditioned medium was collected, briefly spun at 1000 g to remove cellular debris and loaded directly on gelatin gels. The concentration of protein in the aliquots of medium was measured with a BCA kit (Pierce, Rockford, Ill.).
Drugs and incubations: Incubations were performed in the presence of xanthine (X: 2 mM), xanthine oxidase (XO: 20 mU/ml), the combination xanthine+xanthine oxidase (X/XO), superoxide dismutase (SOD: 500 U/ml), X/XO/SOD, nitro-L-arginine (a nonspecific nitric oxide synthase inhibitor, LNA: 1 mM), X/XO/LNA, S-nitroso-N-acetyl penicillamine (a nitric oxide donor, SNAP 10 mM), X/XO/SNAP, N-acetyl cysteine (NAC: 0.1, 1, 10 mM), lipopolysaccharide (LPS 100 ng/ml). All chemicals were purchased from Sigma (St. Louis, Mo.) unless otherwise specified.
SDS-Substrate gel electrophoresis (zymography): For detection of MMPs, equal volumes (15 μl) of conditioned medium (containing the activated MMPs) were mixed in a 1:3 ratio with substrate gel buffer (10% SDS, 4% sucrose, 0.25 M Tris-HCl, pH=6.8 and 0.1% bromphenol blue) and loaded directly onto gels without boiling (Raj agopalan et al., 1996 with modifications). Briefly, type I gelatin was added to a standard Laemmli 10% acrylamide polymerization mixture at a final concentration of 1 mg/ml. Following electrophoresis, the proteins in the gel were renatured by exchanging SDS with Triton X-100 and the gels were incubated overnight at 37° C. in 50 mM TRIS-HCl, pH=7.4 containing 10 mM CaCl2 and 0.05% Brij 35. At the end of the incubation, the gels were stained with 0.5% Coomassie Blue R-250 (Bio-Rad, Hercules, Calif.) in 40% methanol/10% acetic acid, then destained in 40% methanol/10% acetic acid for 1 h. Proteins having gelatinolytic activity appeared as discrete translucent areas of lytic activity on an otherwise blue gel. When the gels are incubated in parallel with 0.01 M EDTA, disappearance of lytic bands confirms the metal dependence of MMP activity. Migration of proteins was compared with that of prestained broad molecular weight markers (Bio-Rad). Further, 10 ng/lane of zymography standards (recombinant MMP-2/MMP-9, Calbiochem, La Jolla, Calif.) were run along with the samples. In order to quantify the gelatinolytic activity of MMPs, the wet gel was scanned on a GS-670 Image Densitometer (Bio-Rad), and analyzed using Multianalyst v1.1 volume quantification system software (Bio-Rad). […]

MMP-2 = experiment: Gelatin zymography of medium from incubated human term amniochorionic membranes, MMP-2; assay type: cell-based
From the text: as §1, with “Ill.). […]” for “Ill.).”
SDS-Substrate gel electrophoresis (zymography): For detection of MMPs, equal volumes (15 μl) of conditioned medium (containing the activated MMPs) were mixed in a 1:3 ratio with substrate gel buffer (10% SDS, 4% sucrose, 0.25 M Tris-HCl, pH=6.8 and 0.1% bromphenol blue) and loaded directly onto gels without boiling (Raj agopalan et al., 1996 with modifications). […] In order to quantify the gelatinolytic activity of MMPs, the wet gel was scanned on a GS-670 Image Densitometer (Bio-Rad), and analyzed using Multianalyst v1.1 volume quantification system software (Bio-Rad). […]

glutathione = experiment: Total glutathione in maternal and fetal livers; assay type: in vivo, mice; conditions: 16 h
Procedure: Measurement of total glutathione: Glutathione content was measured in maternal and fetal livers of animals treated with and without NAC and sacrificed at 3, 6 and 16 hours after LPS injection. Fetal livers were pooled from all fetuses of each pregnant animal, snap frozen in liquid nitrogen and stored at −80° C. until assayed. Briefly, the frozen tissue was rapidly homogenized in 7.5% trichloroacetic acid in a ratio of 1:20 (w/v). The homogenate was centrifuged at 3000 g for 10 min at 4° C. Total glutathione content was assayed in the supernatant by a colorimetric reaction that involves the formation of a chromophoric thione (Bioxytech GSH-420, Oxis Health Products, Portland, Oreg.) and was expressed in μg/ml by using oxidized glutathione standards and further normalized by the total protein content of the pellet. The protein pellet was solubilized in 0.1 N NaOH and its protein content was estimated using a BCA protein assay kit (Pierce, Rockford, Ill.).

C57B16 inbred mice [4] = experiment: Timing of birth (latency) in LPS-injected pregnant mice; assay type: in vivo
Procedure: Animals and treatments: C57B16 inbred mice were housed together with CD57/BL6 males under regular light and dark cycles, with stable ambient temperature conditions. The next morning the females were examined for the presence of a vaginal plug. The day of detection of the vaginal plug was designated as day 0. On day 16 of pregnancy the pregnant mice were injected i.p. with either 10 μg lipopolysaccharide (LPS: from E Coli 0111.:B4 from Calbiochem) or saline (controls). […] NAC was diluted in phosphate buffered saline (PBS). After 12 hours the animals were inspected hourly for signs of parturition (posture, bleeding). The time between LPS injection and delivery of the first pup was defined as latency. Fetal viability at birth was recorded after tactile stimulation of the pup. To separate between the effect of prematurity on the fetus and the in utero consequence of endotoxin administration on the fetus, animals were sacrificed at 3, 6 and 16 hours after endotoxin injection in a separate set of experiments.

C57B16 inbred mice [5] = experiment: Fetal outcome (viability) in LPS-injected pregnant mice; assay type: in vivo; conditions: for Fetuses dead in utero: 16 h after LPS
Procedure: Animals and treatments: C57B16 inbred mice were housed together with CD57/BL6 males under regular light and dark cycles, with stable ambient temperature conditions. The next morning the females were examined for the presence of a vaginal plug. The day of detection of the vaginal plug was designated as day 0. On day 16 of pregnancy the pregnant mice were injected i.p. with either 10 μg lipopolysaccharide (LPS: from E Coli 0111.:B4 from Calbiochem) or saline (controls). N-Acetylcysteine 1 g/kg (NAC: which is a membrane permeable GSH precursor, Sigma, St. Louis Mo. and direct antioxidant) was given p.o. by gavage 30 min before and 2 h after the LPS injection. NAC was diluted in phosphate buffered saline (PBS). After 12 hours the animals were inspected hourly for signs of parturition (posture, bleeding). The time between LPS injection and delivery of the first pup was defined as latency. Fetal viability at birth was recorded after tactile stimulation of the pup. To separate between the effect of prematurity on the fetus and the in utero consequence of endotoxin administration on the fetus, animals were sacrificed at 3, 6 and 16 hours after endotoxin injection in a separate set of experiments.

extracellular O2− [6] = experiment: Placental extracellular superoxide production (SOD-inhibitable NBT reduction); assay type: in vivo, mice
Procedure: Placental extracellular superoxide production: Placental extracellular superoxide production was determined by the SOD-inhibitable reduction of nitroblue tetrazolium. Briefly, after sacrifice duplicate placentas where incubated each in 1 ml 1 mg/ml nitroblue tetrazolium (NBT) diluted in PBS, for 1 h. in a CO2 incubator with humidified chamber at 37° C. The soluble yellow form of NBT is reduced by O2.^− generated within the tissue to form an insoluble precipitate of blue-purple formazan that discolorates the tissue. Extracellular O2.^− produces a discoloration of the incubation medium. The incubation was performed in the presence and absence of SOD. The difference in absorbance at 655 nm normalized by the dry weight of placenta between the average of the duplicates in the presence and absence of SOD represents the SOD-inhibitable O2.^− production and was expressed in normalized arbitrary units.

[7] = addition of SOD, 3 hour incubation with NBT
[8] = SNAP 10 mM, LNA 1 mM, data not shown
[9] = 10 mM NAC, 24 h incubation of human term fetal membranes
[10] = NAC 10 mM, human fetal membranes

CC(C)(C)[N+]([O-])=Cc1cc[n+]([O-])cc1 [POBN, a-(4-pyridyl-1-oxide-N-t-butylnitrone)]
Additional difference in magnitude of the EPR signal, fetus 6 h vs maternal liver 1 h or fetus 1 h [1]: 10 fold

superoxide dismutase [SOD]
Extracellular formazan formation induced by X/XO [2, 7]: inhibited completely
Intracellular formazan formation induced by X/XO [2, 7]: only partially
Change in absorbance at 550 nm (cytochrome c reduction by X/XO) (extracellular O2− [3]): completely inhibited
Effect on the increase in MMP-9 induced by X/XO (MMP-9; human fetal membranes): reversed

CC(=O)N[C@H](C(=O)O)C(C)(C)SN=O [SNAP, S-nitroso-N-acetyl penicillamine]
Effect on fetal membrane MMP activity (MMP-2) (MMP-2; [8]): nor the NO donor SNAP had any significant effect
Effect on fetal membrane MMP activity (MMP-9) (MMP-9; [8]): nor the NO donor SNAP had any significant effect

CC(=O)N[C@@H](CS)C(=O)O [NAC, N-acetylcysteine]
Formazan formation in the incubated tissue (macroscopic) ([2]; NAC 10 mM, 3 hour incubation with NBT): completely abolished
Formazan deposits by light microscopy (intracellular O2− formation) ([2]; tissues exposed to NAC): no formazan deposits
Maternal liver GSH (glutathione; LPS-treated pregnant mice, NAC p.o.): prevented the decrease
Fetal liver GSH content (glutathione; fetuses of LPS-injected mice, maternal NAC p.o.): not different from either CRL or LPS
Latency compared statistically with CRL and LPS groups (C57B16 inbred mice [4]; LPS plus NAC): no longer different from either CRL or LPS animals
Latency period (LPS injection until delivery) (C57B16 inbred mice [4]; LPS plus two doses of 1 mg/kg NAC per os, 1 h before and 2 h after LPS, n=12): 35.13 ± 6.41 h
Kaplan-Maier survival analysis of cumulative birth rates (C57B16 inbred mice [4]; LPS-injected mice with or without NAC): did not reveal a significant NAC effect
Time of delivery after saline injection (C57B16 inbred mice [4]; NAC alone, no LPS, n=7): 67.71 ± 5.8 h
Fetuses dead in utero (C57B16 inbred mice [5]; group that received LPS plus NAC, p=0.006 vs LPS group): 37%
Proportion of pups born alive (C57B16 inbred mice [5]; mice given NAC before and after LPS): statistically significant increase
Effect on the LPS-induced increase in placental extracellular O2− production (extracellular O2− [6]; LPS plus NAC, 3 hours): not seen
MMP-2 activity, % of the levels from the CRL tissue (MMP-2; [9]): 20%
Effect on MMP-2 in the presence and absence of LPS (MMP-2; [10]): dramatically inhibited
MMP-9 activity, % of the levels from the CRL tissue (MMP-9; [9]): 20%
Effect on MMP-9 in the presence and absence of LPS (MMP-9; [10]): dramatically inhibited
Effect on the increase in MMP-9 induced by X/XO (MMP-9; human fetal membranes): prevented the increase in MMP-9

lipopolysaccharide [LPS]
Fetuses dead in utero (C57B16 inbred mice [5]; LPS group without NAC): 63%
Vaginal stillbirth rate (C57B16 inbred mice [5]; LPS group without NAC): 100%
Increase in extracellular O2− production in placentas (extracellular O2− [6]; LPS-injected animals at 3 hours): 2.7 fold
